Test results as given in PMC4770715, “LIM kinase inhibitors disrupt mitotic microtubule organization and impair tumor cell proliferation” (Oncotarget, 2015).

Experiments:
Assay in all cases: biochemical
Parameters in all cases: KINOMEscan active-site competition binding, percent of control (100 = no competition)
Conditions in all cases: competition binding, percent control
[1] = molecular target: T1, ABL1(F317L)-phosphorylated (Homo sapiens, UniProt P00519, F317L)
T1 construct: phosphorylated

ERK2 = molecular target: T2, ERK2 (Homo sapiens, UniProt P28482)
T2 construct: gene MAPK1

PIP5K1C = PIP5K1C (Homo sapiens, UniProt O60331)
FYN = FYN (Homo sapiens, UniProt P06241)
CSK = CSK (Homo sapiens, UniProt P41240)
RIPK1 = RIPK1 (Homo sapiens, UniProt Q13546)
CAMK4 = CAMK4 (Homo sapiens, UniProt Q16566)
AMPK-alpha2 = molecular target: T3, AMPK-alpha2 (Homo sapiens, UniProt P54646)
T3 construct: gene PRKAA2

NLK = NLK (Homo sapiens, UniProt Q9UBE8)
MAST1 = MAST1 (Homo sapiens, UniProt Q9Y2H9)
MEK1 = molecular target: T4, MEK1 (Homo sapiens, UniProt Q02750)
T4 construct: gene MAP2K1

[2] = molecular target: T5, ABL1(E255K)-phosphorylated (Homo sapiens, UniProt P00519, E255K)
T5 construct: phosphorylated

LATS2 = LATS2 (Homo sapiens, UniProt Q9NRM7)
HIPK3 = HIPK3 (Homo sapiens, UniProt Q9H422)
p38-delta = molecular target: T6, p38-delta (Homo sapiens, UniProt O15264)
T6 construct: gene MAPK13

[3] = molecular target: T7, JAK1(JH1domain-catalytic) (Homo sapiens, UniProt P23458)
T7 construct: JH1domain-catalytic

CAMK2B = CAMK2B (Homo sapiens, UniProt Q13554)
FGFR3(G697C) = FGFR3(G697C) (Homo sapiens, UniProt P22607, G697C)
JNK1 = molecular target: T8, JNK1 (Homo sapiens, UniProt P45983)
T8 construct: gene MAPK8

CDK2 = CDK2 (Homo sapiens, UniProt P24941)
CDK5 = CDK5 (Homo sapiens, UniProt Q00535)
TGFBR2 = TGFBR2 (Homo sapiens, UniProt P37173)
LIMK2 = LIMK2 (Homo sapiens, UniProt P53671)

Chain of CAMK4 (Q16566 whole entry): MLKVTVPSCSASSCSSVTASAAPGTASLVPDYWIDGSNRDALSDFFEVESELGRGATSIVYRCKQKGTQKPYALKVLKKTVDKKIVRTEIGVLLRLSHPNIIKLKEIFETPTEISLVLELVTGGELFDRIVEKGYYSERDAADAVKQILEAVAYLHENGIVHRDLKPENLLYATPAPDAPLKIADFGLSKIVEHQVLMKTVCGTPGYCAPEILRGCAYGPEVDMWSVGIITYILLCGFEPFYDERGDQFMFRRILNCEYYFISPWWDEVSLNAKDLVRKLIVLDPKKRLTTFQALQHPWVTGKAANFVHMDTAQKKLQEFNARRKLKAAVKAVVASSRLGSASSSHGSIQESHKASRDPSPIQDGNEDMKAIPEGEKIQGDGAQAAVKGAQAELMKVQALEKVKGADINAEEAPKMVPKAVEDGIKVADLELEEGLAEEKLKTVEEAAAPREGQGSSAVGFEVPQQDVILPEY
T1 sequence (P00519 whole entry F317L): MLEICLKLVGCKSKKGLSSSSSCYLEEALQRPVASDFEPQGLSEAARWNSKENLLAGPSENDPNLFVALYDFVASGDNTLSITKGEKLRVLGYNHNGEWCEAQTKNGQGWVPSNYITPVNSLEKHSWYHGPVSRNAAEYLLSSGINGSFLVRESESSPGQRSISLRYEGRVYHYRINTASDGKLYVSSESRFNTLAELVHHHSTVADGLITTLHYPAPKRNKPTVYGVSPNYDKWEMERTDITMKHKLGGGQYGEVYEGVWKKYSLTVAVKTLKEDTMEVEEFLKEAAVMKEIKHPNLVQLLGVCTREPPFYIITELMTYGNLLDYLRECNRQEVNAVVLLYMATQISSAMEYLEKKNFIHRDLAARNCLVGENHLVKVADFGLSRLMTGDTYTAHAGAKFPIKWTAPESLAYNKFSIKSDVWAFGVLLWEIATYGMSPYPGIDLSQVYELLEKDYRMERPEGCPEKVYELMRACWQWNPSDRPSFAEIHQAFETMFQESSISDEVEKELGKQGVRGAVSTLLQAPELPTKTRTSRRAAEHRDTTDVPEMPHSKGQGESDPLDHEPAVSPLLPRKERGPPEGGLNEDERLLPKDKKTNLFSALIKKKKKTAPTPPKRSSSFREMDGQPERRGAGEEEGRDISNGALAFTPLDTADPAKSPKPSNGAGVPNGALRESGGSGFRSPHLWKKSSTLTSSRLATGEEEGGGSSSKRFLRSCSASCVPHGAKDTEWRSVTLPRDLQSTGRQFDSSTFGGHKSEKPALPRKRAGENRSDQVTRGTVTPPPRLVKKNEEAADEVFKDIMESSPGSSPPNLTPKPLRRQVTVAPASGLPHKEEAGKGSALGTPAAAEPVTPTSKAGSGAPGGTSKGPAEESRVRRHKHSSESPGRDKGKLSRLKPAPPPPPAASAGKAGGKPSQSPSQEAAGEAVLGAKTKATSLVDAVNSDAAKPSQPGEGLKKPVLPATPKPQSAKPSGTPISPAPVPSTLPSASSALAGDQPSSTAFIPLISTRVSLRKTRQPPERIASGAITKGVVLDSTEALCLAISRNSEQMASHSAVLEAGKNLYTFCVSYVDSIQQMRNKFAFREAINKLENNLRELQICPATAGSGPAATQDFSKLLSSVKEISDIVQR
T3 sequence (P54646 whole entry): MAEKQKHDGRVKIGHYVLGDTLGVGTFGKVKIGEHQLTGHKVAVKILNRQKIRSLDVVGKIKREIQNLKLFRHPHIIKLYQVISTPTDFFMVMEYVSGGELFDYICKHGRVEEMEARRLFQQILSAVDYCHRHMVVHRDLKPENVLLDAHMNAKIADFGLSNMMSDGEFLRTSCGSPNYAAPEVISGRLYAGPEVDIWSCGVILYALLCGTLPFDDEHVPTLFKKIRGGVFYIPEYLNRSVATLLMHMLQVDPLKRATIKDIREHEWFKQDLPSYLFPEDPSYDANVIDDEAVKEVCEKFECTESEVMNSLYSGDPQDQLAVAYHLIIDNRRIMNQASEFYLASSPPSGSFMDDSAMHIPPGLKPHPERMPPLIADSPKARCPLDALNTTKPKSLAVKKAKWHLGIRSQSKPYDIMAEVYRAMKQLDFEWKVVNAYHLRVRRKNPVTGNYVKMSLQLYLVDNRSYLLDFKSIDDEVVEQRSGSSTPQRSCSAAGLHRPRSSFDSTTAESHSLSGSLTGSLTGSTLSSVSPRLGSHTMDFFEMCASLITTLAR
Chain of TGFBR2 (P37173 whole entry): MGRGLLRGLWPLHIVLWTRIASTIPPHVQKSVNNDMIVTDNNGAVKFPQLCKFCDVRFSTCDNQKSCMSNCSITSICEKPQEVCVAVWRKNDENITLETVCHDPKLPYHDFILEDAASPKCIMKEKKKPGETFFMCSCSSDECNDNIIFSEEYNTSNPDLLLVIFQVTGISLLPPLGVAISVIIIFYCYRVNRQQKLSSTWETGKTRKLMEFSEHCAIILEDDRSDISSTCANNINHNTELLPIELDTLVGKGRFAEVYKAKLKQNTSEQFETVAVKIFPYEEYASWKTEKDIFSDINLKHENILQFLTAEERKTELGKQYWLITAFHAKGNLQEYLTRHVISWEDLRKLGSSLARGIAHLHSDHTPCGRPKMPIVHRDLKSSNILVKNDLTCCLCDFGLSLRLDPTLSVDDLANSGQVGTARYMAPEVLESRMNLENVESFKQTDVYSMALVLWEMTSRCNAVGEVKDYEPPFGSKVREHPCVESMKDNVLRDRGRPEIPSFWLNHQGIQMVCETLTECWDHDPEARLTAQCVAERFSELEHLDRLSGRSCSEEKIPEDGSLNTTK
Chain of FYN (P06241 whole entry): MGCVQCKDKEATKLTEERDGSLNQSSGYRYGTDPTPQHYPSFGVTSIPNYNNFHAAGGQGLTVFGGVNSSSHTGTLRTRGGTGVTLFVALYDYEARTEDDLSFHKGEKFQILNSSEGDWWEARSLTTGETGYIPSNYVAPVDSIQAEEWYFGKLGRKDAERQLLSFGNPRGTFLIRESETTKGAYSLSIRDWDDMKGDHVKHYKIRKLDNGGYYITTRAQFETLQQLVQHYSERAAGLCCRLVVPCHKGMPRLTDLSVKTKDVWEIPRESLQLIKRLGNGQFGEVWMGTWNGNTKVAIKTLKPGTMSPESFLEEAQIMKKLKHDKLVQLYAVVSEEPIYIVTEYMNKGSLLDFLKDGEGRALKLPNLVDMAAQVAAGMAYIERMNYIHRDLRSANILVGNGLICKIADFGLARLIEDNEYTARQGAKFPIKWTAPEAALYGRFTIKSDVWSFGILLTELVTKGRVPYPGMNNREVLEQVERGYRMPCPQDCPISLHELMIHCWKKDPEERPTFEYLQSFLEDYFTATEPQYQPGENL
T6 sequence (O15264 whole entry): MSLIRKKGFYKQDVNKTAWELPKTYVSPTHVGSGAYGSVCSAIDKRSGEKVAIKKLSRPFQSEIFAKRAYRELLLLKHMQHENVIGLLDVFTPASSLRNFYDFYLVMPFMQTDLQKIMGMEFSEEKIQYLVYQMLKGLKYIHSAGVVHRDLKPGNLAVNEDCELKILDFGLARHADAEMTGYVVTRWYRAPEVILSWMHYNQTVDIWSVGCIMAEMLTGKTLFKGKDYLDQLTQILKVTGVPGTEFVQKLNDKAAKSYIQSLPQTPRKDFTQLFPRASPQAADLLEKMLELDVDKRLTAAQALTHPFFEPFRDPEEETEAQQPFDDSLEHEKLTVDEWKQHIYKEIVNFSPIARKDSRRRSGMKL
Chain of HIPK3 (Q9H422 whole entry): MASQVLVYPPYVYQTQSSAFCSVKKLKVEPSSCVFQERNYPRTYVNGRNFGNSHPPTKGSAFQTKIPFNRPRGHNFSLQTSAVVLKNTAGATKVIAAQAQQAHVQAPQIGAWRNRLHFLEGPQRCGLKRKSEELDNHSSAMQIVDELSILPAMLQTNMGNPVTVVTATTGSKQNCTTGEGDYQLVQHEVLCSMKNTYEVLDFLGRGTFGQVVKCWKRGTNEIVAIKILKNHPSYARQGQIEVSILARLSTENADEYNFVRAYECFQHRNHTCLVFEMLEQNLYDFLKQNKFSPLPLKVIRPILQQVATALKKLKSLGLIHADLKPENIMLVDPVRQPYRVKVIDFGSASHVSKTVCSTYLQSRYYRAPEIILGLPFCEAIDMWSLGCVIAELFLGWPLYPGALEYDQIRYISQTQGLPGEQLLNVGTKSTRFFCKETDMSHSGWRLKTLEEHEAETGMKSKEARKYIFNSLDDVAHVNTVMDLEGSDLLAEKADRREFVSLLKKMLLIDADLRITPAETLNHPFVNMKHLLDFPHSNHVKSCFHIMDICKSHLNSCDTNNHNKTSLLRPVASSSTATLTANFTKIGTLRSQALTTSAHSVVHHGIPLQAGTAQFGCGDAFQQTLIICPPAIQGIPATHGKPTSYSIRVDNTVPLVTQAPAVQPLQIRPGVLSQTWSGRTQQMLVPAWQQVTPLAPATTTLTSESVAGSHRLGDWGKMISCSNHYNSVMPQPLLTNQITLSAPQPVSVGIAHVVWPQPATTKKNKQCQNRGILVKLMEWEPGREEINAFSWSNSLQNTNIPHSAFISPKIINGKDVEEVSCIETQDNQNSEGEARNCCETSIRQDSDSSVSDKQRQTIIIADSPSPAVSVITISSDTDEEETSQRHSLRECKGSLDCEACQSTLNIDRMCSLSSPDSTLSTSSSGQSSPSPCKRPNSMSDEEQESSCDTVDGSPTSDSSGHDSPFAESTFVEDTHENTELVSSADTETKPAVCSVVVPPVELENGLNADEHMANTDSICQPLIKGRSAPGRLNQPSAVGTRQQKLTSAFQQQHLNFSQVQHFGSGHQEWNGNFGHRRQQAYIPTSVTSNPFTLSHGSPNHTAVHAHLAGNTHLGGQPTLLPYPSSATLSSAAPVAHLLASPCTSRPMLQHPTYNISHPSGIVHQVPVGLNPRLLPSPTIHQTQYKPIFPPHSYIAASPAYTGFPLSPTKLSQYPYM
T5 sequence (P00519 whole entry E255K): as the sequence (P00519 whole entry F317L) above, with E255K, L317F counted along it

| SMILES | remaining binding at 10 µM [1] [%] | remaining binding at 10 µM (ERK2) [%] | remaining binding at 10 µM (PIP5K1C) [%] | remaining binding at 10 µM (FYN) [%] | remaining binding at 10 µM (CSK) [%] | remaining binding at 10 µM (RIPK1) [%] | remaining binding at 10 µM (CAMK4) [%] | remaining binding at 10 µM (AMPK-alpha2) [%] | remaining binding at 10 µM (NLK) [%] | remaining binding at 10 µM (MAST1) [%] | remaining binding at 10 µM (MEK1) [%] | remaining binding at 10 µM [2] [%] | remaining binding at 10 µM (LATS2) [%] | remaining binding at 10 µM (HIPK3) [%] | remaining binding at 10 µM (p38-delta) [%] | remaining binding at 10 µM [3] [%] | remaining binding at 10 µM (CAMK2B) [%] | remaining binding at 10 µM (FGFR3(G697C)) [%] | remaining binding at 10 µM (JNK1) [%] | remaining binding at 10 µM (CDK2) [%] | other results |
| --- | --- | --- | --- | --- | --- | --- | --- | --- | --- | --- | --- | --- | --- | --- | --- | --- | --- | --- | --- | --- | --- |
| COc1ccc(-c2cnccc2-c2cnc(NC(=O)C(C)C)s2)c(C(F)(F)F)c1 [CRT0105446, N-{5-[3-(4-Methoxy-2-trifluoromethyl-phenyl)-pyridin-4-yl]-hiazol-2-yl}-isobutyramide] | 89 | 100 | 60 | 99 | 91 | 90 | 98 | 3.9 | 57 | 68 | 87 | 78 | 90 | 98 | 97 | 89 | 92 | 93 | 34 | 0.9 | remaining binding at 10 µM (CDK5): 60%; remaining binding at 10 µM (TGFBR2): 94%; remaining binding at 10 µM (LIMK2): 1.1% |
| Cc1ccc(-c2cnccc2-c2cnc(Nc3ccc(O)cc3)s2)c(Cl)c1 [CRT0105950, 4-{5-[3-(2-Chloro-4-methyl-phenyl)-pyridin-4-yl]-thiazol-2-ylamino}-phenol] | 67 | 100 | 100 | 49 | 71 | 17 | 90 | 2 | 20 | 84 | 51 | 79 | 6 | 69 | 100 | 53 | 42 | 7.2 | 40 | 0.2 | remaining binding at 10 µM (CDK5): 12%; remaining binding at 10 µM (TGFBR2): 18%; remaining binding at 10 µM (LIMK2): 0% |
